Inhibition and IC50 data for 14 compounds are collected here from ChEMBL document CHEMBL4304789, “Design, Synthesis, and Biological Evaluation of 2,4-Imidazolinedione Derivatives as HDAC6 Isoform-Selective Inhibitors” (ACS Med Chem Lett, 2019).

The structures appear in SMILES notation. Active and inactive are the calls of the source. The rule behind the calls is not given here.

The first assay has as its target Histone deacetylase (Homo sapiens) (UniProt Q13547+O15379+Q9UBN7+Q92769+Q9UQL6+Q8WUI4+Q9BY41+Q96DB2+P56524+Q9UKV0+Q969S8). As to conditions: at 0.08 to 1.6 µM.
Description: Inhibition of HDAC in human HL60 cells assessed as increase in acetylation of H3 at 0.08 to 1.6 uM incubated for 24 hrs by western blot analysis
For the compound `O=C(CCCCCCNC(=O)c1cnc(N(c2ccccc2)c2ccccc2)nc1)NO`, the inhibition result is “Active”.

In the next assay the target is T1, Protein deacetylase HDAC6 (Homo sapiens, UniProt Q9UBN7).
T1 sequence (Q9UBN7 whole entry): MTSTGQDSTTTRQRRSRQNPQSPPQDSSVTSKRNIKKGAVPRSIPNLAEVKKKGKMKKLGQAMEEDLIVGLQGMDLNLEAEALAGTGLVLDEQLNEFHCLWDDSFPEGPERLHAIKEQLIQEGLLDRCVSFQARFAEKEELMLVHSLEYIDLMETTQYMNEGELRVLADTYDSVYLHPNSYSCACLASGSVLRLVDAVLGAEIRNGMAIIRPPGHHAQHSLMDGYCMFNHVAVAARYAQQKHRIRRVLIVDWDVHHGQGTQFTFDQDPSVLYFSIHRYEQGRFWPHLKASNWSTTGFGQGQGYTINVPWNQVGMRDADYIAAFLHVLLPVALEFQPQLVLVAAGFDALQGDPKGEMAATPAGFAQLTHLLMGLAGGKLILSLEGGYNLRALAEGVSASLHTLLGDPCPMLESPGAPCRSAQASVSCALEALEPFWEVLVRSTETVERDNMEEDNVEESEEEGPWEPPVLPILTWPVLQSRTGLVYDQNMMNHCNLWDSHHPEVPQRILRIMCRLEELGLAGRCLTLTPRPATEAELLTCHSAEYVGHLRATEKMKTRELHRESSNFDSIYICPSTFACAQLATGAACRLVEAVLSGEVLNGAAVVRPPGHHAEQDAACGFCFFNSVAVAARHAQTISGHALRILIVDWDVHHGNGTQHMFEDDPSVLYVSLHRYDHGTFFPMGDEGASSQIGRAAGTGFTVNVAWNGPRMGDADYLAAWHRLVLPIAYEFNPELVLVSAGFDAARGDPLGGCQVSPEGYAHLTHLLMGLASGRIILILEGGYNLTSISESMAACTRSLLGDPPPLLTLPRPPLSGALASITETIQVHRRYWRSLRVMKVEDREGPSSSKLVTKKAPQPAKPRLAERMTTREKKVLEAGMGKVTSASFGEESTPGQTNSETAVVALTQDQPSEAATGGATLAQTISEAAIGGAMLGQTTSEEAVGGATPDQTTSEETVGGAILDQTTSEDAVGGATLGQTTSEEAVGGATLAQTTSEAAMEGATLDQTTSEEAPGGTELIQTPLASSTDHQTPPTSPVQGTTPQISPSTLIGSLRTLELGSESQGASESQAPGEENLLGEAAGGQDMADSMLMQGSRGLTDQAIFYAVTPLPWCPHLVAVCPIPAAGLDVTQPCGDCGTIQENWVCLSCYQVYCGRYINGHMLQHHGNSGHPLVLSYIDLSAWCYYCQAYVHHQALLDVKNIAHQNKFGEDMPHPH
Description: Inhibition of HDAC6 (unknown origin) using Ac-LeuGlyLys(Ac)-AMC as substrate preincubated for 5 mins followed by substrate addition and measured after 60 mins by fluorescence based assay.
Details: not given
Take `Cc1ccc(CN2C(=O)N(C3CCCCC3)C(=O)C2CCC(=O)NCc2ccc(C(=O)NO)cc2)cc1` (centres undefined): half-maximal inhibition (IC50) was put at 17 nM.

Regarding `Cc1ccc(CN2C(=O)N(c3ccc(Cl)cc3)C(=O)C2CCC(=O)NCc2ccc(C(=O)NO)cc2)cc1` (centres undefined), the IC50 – broadly, the point on the concentration scale where inhibition reaches its midpoint – worked out at 18.9 nM.

As to `O=C(CCC1C(=O)N(c2ccc(Cl)cc2)C(=O)N1Cc1ccccc1)NCc1ccc(C(=O)NO)cc1` (centres undefined), it took 12.7 nM to reach half-maximal inhibition (IC50).

The compound `CCCN1C(=O)N(C2CCCCC2)C(=O)C1CCC(=O)Nc1ccc(C(=O)NO)cc1` (centres undefined) returned a half-maximal inhibitory concentration (IC50) above 40 nM.

For `CCCN1C(=O)N(c2ccc(Cl)cc2)C(=O)C1CCC(=O)Nc1ccc(C(=O)NO)cc1` (centres undefined), the IC50 turned out to be 12.6 nM.

For the compound `CN1C(=O)N(c2ccc(Cl)cc2)C(=O)C1CCC(=O)NCc1ccc(C(=O)NO)cc1` (centres undefined), inhibition was half-maximal at 11.8 nM (IC50).

On to `O=C(CCC1C(=O)N(Cc2ccccc2)C(=O)N1Cc1ccc(Br)cc1)Nc1ccc(C(=O)NO)cc1` (centres undefined), for which the IC50 is 9.8 nM.

Compound `O=C(CCC1C(=O)N(c2ccccc2)C(=O)N1Cc1ccc(Br)cc1)NCc1ccc(C(=O)NO)cc1` (centres undefined) came in with an IC50 of 13.6 nM.

With `O=C(CCC1C(=O)N(c2ccc(Cl)cc2)C(=O)N1Cc1ccccc1)Nc1cccc(C(=O)NO)c1` (centres undefined), the 50% inhibitory concentration (IC50) was above 40 nM.

`CN1C(=O)N(c2ccc(Cl)cc2)C(=O)C1CCC(=O)Nc1ccc(C(=O)NO)cc1` (centres undefined) showed an IC50 of 7 nM.

In turn, `O=C(CCC1C(=O)N(c2ccc(Cl)cc2)C(=O)N1Cc1ccc(Br)cc1)NCc1ccc(C(=O)NO)cc1` (centres undefined) showed a half-maximal inhibitory concentration (IC50) of 16.5 nM. Against the preceding compound, the IC50 is about 2.4-fold higher.

`Cc1ccc(CN2C(=O)N(c3ccc(Cl)cc3)C(=O)C2CCC(=O)Nc2cccc(C(=O)NO)c2)cc1` (centres undefined) gave an IC50 above 40 nM.

For `Cc1ccc(CN2C(=O)N(C3CCCCC3)C(=O)C2CCC(=O)Nc2ccc(C(=O)NO)cc2)cc1` (centres undefined), the 50% inhibitory concentration (IC50) came to 10.3 nM.
